These results are taken from patent US8993574B2, “Pyrrole antifungal agents” (F2G Ltd, priority 2008, dated 2015).

Structures are written as SMILES. In brackets after ≈: the same amount, converted by molar mass.

Assay type in all cases: cell-based
The test system of test [1] is Aspergillus flavus. The experiment in a line: MIC, YAG medium. To be noted: 24 h at 35° C, MIC banded into grades; for MIC: Aspergillus flavus, 24 h, read-out: MIC grade, A. flavus. The method in brief: (§1)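 MICs (mg/L) derive from the lowest compound concentration suppressing spore outgrowth by >70% against a drug-free well, by OD 485 nm. Conditions: YAG medium, 1−2×10^4 cfu/mL, 24 h, 35° C, two-fold dilutions from 50 mg/L.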

The subject of test [2] is Aspergillus niger. Briefly: MIC, YAG medium. To be noted: 24 h at 35° C, MIC banded into grades; for MIC: Aspergillus niger, read-out: MIC grade, A. niger. The method in brief:
as §1

In test [3] the test system is Aspergillus terreus AT4. Briefly: MIC, YAG medium. To be noted: 24 h at 35° C, MIC banded into grades; for MIC: Aspergillus terreus, read-out: MIC grade, A. terreus. The method in brief: as §1
The subject of test [4] is Aspergillus terreus AT49. Briefly: MIC, YAG medium. Particulars: 24 h at 35° C, MIC banded into grades; for MIC: Aspergillus terreus, read-out: MIC grade, A. terreus 49. The procedure, abridged:
as §1

The test system of test [5] is Aspergillus fumigatus AF210. The experiment in a line: MIC, YAG medium. Particulars: 24 h at 35° C, MIC banded into grades; for MIC: Aspergillus fumigatus, read-out: MIC grade, A. fumigatus 210. The procedure, abridged:
as §1

Test [6] deals with Aspergillus fumigatus AF293. The experiment in a line: MIC, YAG medium. Particulars: 24 h at 35° C, MIC banded into grades; for MIC: Aspergillus fumigatus, read-out: MIC grade, A. fumigatus. The procedure, abridged: as §1
Test [7] has as its system Aspergillus flavus. The experiment in a line: MIC, RPMI medium. To be noted: MIC banded into grades; for MIC: Aspergillus flavus, read-out: MIC grade, A. flavus. The method in brief:
(§2)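 Fungi are tested in RPMI buffered with 0.135 M MOPS (pH 7.0) plus 2% glucose, inoculum 1−2×10^4 cfu/mL, against doubling compound dilutions spanning 50-0.05 mg/L. After 24-48 h at 35° C, the MIC is the lowest concentration suppressing growth by >80% against drug-free control.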

Test [8] deals with Aspergillus niger. Briefly: MIC, RPMI medium. To be noted: MIC banded into grades; for MIC: Aspergillus niger, read-out: MIC grade, A. niger. The procedure, abridged:
as §2

Test [9] deals with Aspergillus terreus AT4. The experiment in a line: MIC, RPMI medium. Particulars: for MIC: Aspergillus terreus, AT4, MIC banded into grades, read-out: MIC grade, A. terreus. The procedure, abridged:
as §2

Test [10] has as its system Aspergillus terreus AT49. Briefly: MIC, RPMI medium. To be noted: for MIC: Aspergillus terreus, AT49, MIC banded into grades, read-out: MIC grade, A. terreus 49. The procedure, abridged:
as §2

The subject of test [11] is Aspergillus fumigatus AF210. The experiment in a line: MIC, RPMI medium. Particulars: for MIC: Aspergillus fumigatus, AF210, MIC banded into grades, read-out: MIC grade, A. fumigatus 210. The method in brief: as §2
In test [12] the test system is Aspergillus fumigatus AF293. The experiment in a line: MIC, RPMI medium. Particulars: for MIC: Aspergillus fumigatus, AF293, MIC banded into grades, read-out: MIC grade, A. fumigatus. The method in brief: as §2

Regarding `COCCn1c(C)cc(-c2ccccc2)c1C(=O)C(=O)Nc1ccc(N2CCN(c3cc(C)cc(C)n3)CC2)cc1Cl` [Example 92, N-{2-Chloro-4-[4-(4,6-dimethyl-pyridin-2-yl)-piperazin-1-yl]-phenyl}-2-[1-(2-methoxy-ethyl)-5-methyl-3-phenyl-1H-pyrrol-2-yl]-2-oxo-acetamide], the “MIC grade, A. flavus” value against Aspergillus flavus [1] is recorded as 3 (A grade of 3 represents an MIC of less than 1 mg/L); in the test on Aspergillus flavus [7], 1 (a grade of 1 represents an MIC of greater than 10 mg/L). The “MIC grade, A. niger” value against Aspergillus niger [2] and against Aspergillus niger [8] was 3 (A grade of 3 represents an MIC of less than 1 mg/L) throughout. The “MIC grade, A. terreus” value with Aspergillus terreus AT4 [3] was 3 (A grade of 3 represents an MIC of less than 1 mg/L); against Aspergillus terreus AT4 [9] (MIC banded into grades), 1 (a grade of 1 represents an MIC of greater than 10 mg/L). Moreover, the figures for the “MIC grade, A. terreus 49” value with Aspergillus terreus AT49 [4] and with Aspergillus terreus AT49 [10] (MIC banded into grades) were 3 (A grade of 3 represents an MIC of less than 1 mg/L) and 1 (a grade of 1 represents an MIC of greater than 10 mg/L), respectively. The “MIC grade, A. fumigatus 210” value in test [5] and in test [11] (MIC banded into grades) was 3 (A grade of 3 represents an MIC of less than 1 mg/L) throughout. Besides, the “MIC grade, A. fumigatus” value in test [6] and in test [12] (MIC banded into grades) was 3 (A grade of 3 represents an MIC of less than 1 mg/L) throughout.

Take `COCCn1c(C)cc(-c2ccccc2)c1C(=O)C(=O)Nc1ccc(N2CCN(c3cc(C)cc(C)n3)CC2)c(Cl)c1` [Example 24, N-{3-Chloro-4-[4-(4,6-dimethyl-pyridin-2-yl)-piperazin-1-yl]-phenyl}-2-[1-(2-methoxy-ethyl)-5-methyl-3-phenyl-1H-pyrrol-2-yl]-2-oxo-acetamide]: the MIC (with Aspergillus flavus [1]; with Aspergillus niger [2]; in the test on Aspergillus terreus AT4 [3]; in the test with Aspergillus terreus AT49 [4]; in [5]; in [6]) was under 1 µg/mL in each case. The MIC (in general, the smallest concentration in the dilution series that meets the test's criterion for growth inhibition) in the test on Aspergillus flavus [7] is 1 to 10 µg/mL (≈ 1.71 to 17.1 µM); in the test on Aspergillus niger [8], under 1 µg/mL; in the test with Aspergillus terreus AT4 [9] it was 1 to 10 µg/mL (≈ 1.71 to 17.1 µM); in the test with Aspergillus terreus AT49 [10], over 10 µg/mL; in test [11], under 1 µg/mL; in [12], under 1 µg/mL.

For `Cc1cccc(N2CCN(c3ccc(NC(=O)C(=O)c4c(-c5ccccc5)cc(C)n4C)cc3)CC2)n1` [Example 39, 2-(1,5-Dimethyl-3-phenyl-1H-pyrrol-2-yl)-N-{4-[4-(6-methyl-pyridin-2-yl)-piperazin-1-yl]-phenyl}-2-oxo-acetamide], the MIC (in the test on Aspergillus flavus [1]; with Aspergillus niger [2]; in the test with Aspergillus terreus AT4 [3]; in the test on Aspergillus terreus AT49 [4]; in test [5]; in [6]) was under 1 µg/mL in each case. Besides, the MIC (with Aspergillus flavus [7]; in the test on Aspergillus niger [8]; in the test on Aspergillus terreus AT4 [9]; in the test on Aspergillus terreus AT49 [10]; in test [11]; in test [12]) was under 1 µg/mL throughout.

On to `Cc1cc(-c2ccccc2)c(C(=O)C(=O)Nc2ccc3ccccc3c2)n1C` [Example 44, 2-(1,5-Dimethyl-3-phenyl-1H-pyrrol-2-yl)-N-naphthalen-2-yl-2-oxo-acetamide], for which the MIC (with Aspergillus flavus [1]; with Aspergillus niger [2]; with Aspergillus terreus AT4 [3]; in the test with Aspergillus terreus AT49 [4]; in test [5]; in [6]) was under 1 µg/mL in each case. Also, the minimum inhibitory concentration (MIC) (with Aspergillus flavus [7]; with Aspergillus niger [8]; with Aspergillus terreus AT4 [9]; in the test on Aspergillus terreus AT49 [10]; in test [11]; in [12]) was under 1 µg/mL each time.

Turning to `Cc1cc(-c2ccccc2)c(C(=O)C(=O)Nc2ccc(N3CCCCC3)cc2)n1C` [Example 143, 2-(1,5-Dimethyl-3-phenyl-1H-pyrrol-2-yl)-2-oxo-N-(4-piperidin-1-yl-phenyl)-acetamide], the MIC (in the test on Aspergillus flavus [1]; with Aspergillus niger [2]; with Aspergillus terreus AT4 [3]; with Aspergillus terreus AT49 [4]; in [5]; in test [6]) was under 1 µg/mL each time. Further, the minimal inhibitory concentration (MIC) (with Aspergillus flavus [7]; in the test with Aspergillus niger [8]; in the test with Aspergillus terreus AT4 [9]; in the test with Aspergillus terreus AT49 [10]; in test [11]; in test [12]) was under 1 µg/mL throughout.

Regarding `Cc1cc(-c2ccccc2)c(C(=O)C(=O)Nc2ccc(N3CCOCC3)cc2)n1C` [Example 154, 2-(1,5-Dimethyl-3-phenyl-1H-pyrrol-2-yl)-N-(4-morpholin-4-yl-phenyl)-2-oxo-acetamide], the minimal inhibitory concentration (MIC) (in the test with Aspergillus flavus [1]; in the test with Aspergillus niger [2]; with Aspergillus terreus AT4 [3]; in the test with Aspergillus terreus AT49 [4]; in test [5]; in test [6]) was under 1 µg/mL throughout. Further, the MIC (in the test with Aspergillus flavus [7]; in the test with Aspergillus niger [8]; in the test on Aspergillus terreus AT4 [9]; in the test with Aspergillus terreus AT49 [10]; in test [11]; in test [12]) was under 1 µg/mL each time.

In the case of `Cc1cc(C)nc(N2CCN(c3ccc(NC(=O)C(=O)c4c(-c5ccccc5)ccn4C)cc3)CC2)c1` [Example 45, N-{4-[4-(4,6-Dimethyl-pyridin-2-yl)-piperazin-1-yl]-phenyl}-2-(1-methyl-3-phenyl-1H-pyrrol-2-yl)-2-oxo-acetamide], the minimal inhibitory concentration (MIC) (with Aspergillus flavus [1]; in the test with Aspergillus niger [2]; in the test with Aspergillus terreus AT4 [3]; in the test on Aspergillus terreus AT49 [4]; in test [5]; in test [6]) was under 1 µg/mL each time. Also, the minimal inhibitory concentration (MIC) (in the test with Aspergillus flavus [7]; in the test on Aspergillus niger [8]; in the test with Aspergillus terreus AT4 [9]; in the test with Aspergillus terreus AT49 [10]; in test [11]; in test [12]) was under 1 µg/mL each time.

`Cc1cc(-c2ccccc2)c(C(=O)C(=O)Nc2ccc(N3CCCCC3)c(F)c2)n1C` [Example 115, 2-(1,5-Dimethyl-3-phenyl-1H-pyrrol-2-yl)-N-(3-fluoro-4-piperidin-1-yl-phenyl)-2-oxo-acetamide]: the MIC (in the test on Aspergillus flavus [1]; in the test with Aspergillus niger [2]; with Aspergillus terreus AT4 [3]; in the test with Aspergillus terreus AT49 [4]; in [5]; in test [6]) was under 1 µg/mL in each case. Besides, the MIC (in the test with Aspergillus flavus [7]; with Aspergillus niger [8]; in the test on Aspergillus terreus AT4 [9]; in the test with Aspergillus terreus AT49 [10]; in [11]; in test [12]) was under 1 µg/mL in each case.

In the case of `Cc1cc(-c2ccccc2)c(C(=O)C(=O)Nc2ccc(N3CCN(c4ccccn4)CC3)c(F)c2)n1C` [Example 116, 2-(1,5-Dimethyl-3-phenyl-1H-pyrrol-2-yl)-N-[3-fluoro-4-(4-pyridin-2-yl-piperazin-1-yl)-phenyl]-2-oxo-acetamide], the MIC (in the test on Aspergillus flavus [1]; in the test on Aspergillus niger [2]; in the test with Aspergillus terreus AT4 [3]; with Aspergillus terreus AT49 [4]; in test [5]; in [6]) was under 1 µg/mL in each case. Further, the minimal inhibitory concentration (MIC) in the test on Aspergillus flavus [7] was over 10 µg/mL; in the test on Aspergillus niger [8], under 1 µg/mL; in the test on Aspergillus terreus AT4 [9] it was under 1 µg/mL; with Aspergillus terreus AT49 [10], under 1 µg/mL; in [11], under 1 µg/mL; in [12], under 1 µg/mL.
